Data: patent US20060189634A1, “Fungicide mixtures” (priority 2003, published 2006)

Tested on: Plasmopara viticola
Test: Activity against peronospora of grapevines caused by Plasmopara viticola (protective spray on potted vines)
Assay type: in vivo
Settings: individual active compound, grapevine leaves cv. Müller-Thurgau, untreated control 81% infection
Experimental: The active compounds, separately or jointly, were prepared as a stock solution comprising 0.25% by weight of active compound in acetone or DMSO. 1% by weight of the emulsifier Uniperol® EL (wetting agent having emulsifying and dispersant action based on ethoxylated alkylphenols) was added to this solution, and the mixture was diluted with water to the desired concentration.
Use example—Activity against peronospora of grapevines caused by Plasmopara viticola
Leaves of potted vines of the cultivar “Müller-Thurgau” were sprayed to runoff point with an aqueous suspension having the concentration of active compound stated below. The next day, the undersides of the leaves were inoculated with an aqueous zoospore suspension of Plasmopara viticola. The grapevines were then initially placed in a water-vapor-saturated chamber at 24° C. for 48 hours and then in a greenhouse at 20-30° C. for 5 days. After this period of time, the plants were again placed in a humid chamber for 16 hours to promote sporangiophore eruption. The extent of the development of the disease on the undersides of the leaves was then determined visually.
The visually determined percentages of infected leaf areas were converted into efficacies in % of the untreated control:
The efficacy (E) is calculated as follows using Abbot's formula: E=(1−α/β)−100 α corresponds to the fungicidal infection of the treated plants in % and β corresponds to the fungicidal infection of the untreated (control) plants in %
An efficacy of 0 means that the infection level of the treated plants corresponds to that of the untreated control plants; an efficacy of 100 means that the treated plants were not infected.
The expected efficacies of mixtures of active compounds were determined using Colby's formula (Colby, S. R. “Calculating synergistic and antagonistic responses of herbicide combinations”, Weeds, 15, 20-22, 1967) and compared with the observed efficacies.
Colby's formula: E=x+y−x·y/100 E expected efficacy, expressed in % of the untreated control, when using the mixture of the active compounds A and B at the concentrations a and b x efficacy, expressed in % of the untreated control, when using the active compound A at the concentration a y efficacy, expressed in % of the untreated control, when using the active compound B at the concentration b

Row | Compound | Efficacy in % of the untreated control (4 ppm in the spray liquor) [%] | Efficacy in % of the untreated control (1 ppm in the spray liquor) [%] | Efficacy in % of the untreated control (16 ppm in the spray liquor) [%]
1 | CC1CCN(c2c(-c3c(F)cccc3Cl)c(Cl)nc3ncnn23)CC1 [Comparison A] | 13 |  | 
2 | C[C@H](Nc1c(-c2c(F)cc(F)cc2F)c(Cl)nc2ncnn12)C(F)(F)F [Comparison B] | 13 |  | 
3 | CC1CCN(c2c(-c3c(F)cc(F)cc3F)c(Cl)nc3ncnn23)CC1 [I, 5-chloro-7-(4-methylpiperidin-1-yl)-6-(2,4,6-trifluorophenyl)-[1,2,4]triazolo[1,5-a]pyrimidine] | 51 |  | 
4 | N#Cc1sc2c(=O)c3ccccc3c(=O)c=2sc1C#N [II (dithianon), 5,10-dioxo-5,10-dihydronaphtho[2,3-b][1,4]dithiine-2,3-dicarbonitrile] | 13 | 1 | 13
